Results taken from article PMC3532212 (PLoS ONE, 2012).

Experiments:
[1] = CSF concentrations after a single oral dose of FTY720, satellite rats; format: in vivo, rat; conditions: FTY720 3.0 or 10 mg/kg single oral dose, 4, 8, 24, 72-hrs post-dose
Experimental: Prior to longer-term hypertension studies with FTY720 an acute, single oral-dose study was performed to define the lower and upper limits of a pharmacologically-active dose with respect to acute hemodynamic effects. […] Values of both the parent and metabolite were detectable through at least 72-hrs post-dose. Tissue concentrations in the brain, skeletal muscle, and CSF were also determined in a separate group of satellite rats (please see Supplementary Figure, S2 ). Relative to the vehicle control group, FTY720 elicited dose-dependent and sustained increases in mean arterial pressure after a single oral dose, an effect that reached statistical significance in the 3 and 10 mg/kg dose groups (to 13.5±1.8 and 19.9±2.8 mmHg above baseline, respectively, based on a 24-hr mean values on day 1 vs. 3.6±1.5 mmHg in vehicle controls, Figure 4 , A). […] The acute hemodynamic effects of a single oral dose of BAF312 (0.3, 3.0, and 30 mg/kg) were also quantified.
A blood sample or tissues were harvested from satellite rats at 4, 8, 24, and 72-hrs post-dose. […] (TIF) Click here for additional data file.

[2] = Plasma concentrations in repeat-dosing study, satellite rats; format: in vivo, rat; conditions: for concentration at 0 h / concentration at 4 h / concentration at 8 h / concentration at 24 h: male, Sprague Dawley, rat, plasma, po, mean±SEM; for Plasma concentration at Tmax / Terminal plasma concentration at Tmax: satellite rats; for Plasma concentration at Tmax: day 1; for Terminal plasma concentration at Tmax: last day of study
Experimental: Mean arterial pressure was assessed in conscious, freely moving male Sprague Dawley rats (n = 6–8/group; Charles River) instrumented with telemetry transmitters (DSI-Ponemah) and housed in metabolism cages as previously described, [26]. Tested compounds were solubilized in a 0.5% Methylcellulose/0.015% Tween 80 vehicle that was also dosed alone (p.o./QD, 5 mL/kg) as a control in the study. FTY720 was administered p.o. at 0.3, 1.0, 3.0, 10.0 mg/kg p.o. as a single dose or p.o./QD at 0.5, 1.5, and 5.0 mg/kg in a chronic study. BAF312 was administered p.o/QD at 0.3, 3.0, and 30 mg/kg as a single dose and in a chronic study. Mean arterial pressure and heart rate are shown as 1-hr and/or 24-hr mean values±SEM as described in the results. Blood samples in satellite rats were withdrawn at various timepoints as described in the results for analysis of plasma concentrations of the parent compound and, in the case of FTY720, also the phosphorylated metabolite, (S)-FTY720-P. Statistical analysis for the single-dose acute studies was based on one-way ANOVA to compare the treatment groups vs. vehicle for each time period after dosing (0–24 hrs, 24–48 hrs, and 48–72 hrs); statistical significance (p<0.05) was detected by Dunnett’s post-hoc test to compare treatment with vehicle controls. The statistical analysis in the chronic studies were based on one-way ANOVA with repeated measures to compare the treatment arms; statistical significance (p<0.05) was detected by Dunnett’s post-hoc test to compare treatment with vehicle controls.

[3] = Plasma concentrations during escalating i.v. infusion in anesthetized rats; format: in vivo; conditions: male, Sprague Dawley, plasma, iv, anesthetized rat, FTY720 i.v.
Experimental: The cardiovascular effects of FTY720 and BAF312 were tested in anesthetized rats (180–200 g). In brief, male Sprague Dawley rats (Charles River) were anesthetized with Inactin (110 mg/kg i.p.) and a tracheotomy performed. The femoral artery and veins were catheterized for measurement of mean arterial pressure and heart rate, collection of blood samples at 20-min intervals (0.2 mL/sample), and for compound infusion/hydration as previously described, [24]; blood samples were also withdrawn in vehicle-treated control rats. FTY720, infused as a hydrochloride salt (0.1, 0.3, 1.0 mg/kg/20-min free base equivalent solubilized in a 100% PEG-400 vehicle), or BAF312 (0.5, 1.5, 5.0 mg/kg/20-min solubilized in a 100% PEG-400 vehicle) were administered via three escalating 20-min infusions (0.011 mL/min) followed by a 1-hr post-treatment period. A blood sample was withdrawn at 20, 40, 60, and 120-minutes for analysis of plasma concentrations of the parent compound, and in the case of FTY720, also the phosphorylated metabolite, (S)-FTY720-P. Statistical significance (p<0.05) was based on a t-test comparing treatment change from baseline (baseline was defined as the period from −30 to 0 minutes) vs. vehicle controls change from baseline at each timepoint without adjustment for multiple comparisons. In a separate group of anesthetized rats in which left ventricular (LV) contractility was also recorded with a Millar pressure transducer introduced into the left ventricle, BAF312 was infused in the same dosing regimen as the studies described above (0.5, 1.5, 5.0 mg/kg/20-min solubilized in a 100% PEG-400 vehicle) and effects on LV dP/dtmax were recorded.

With `CCCCCCCCc1ccc(CCC(N)(CO)CO)cc1` [FTY720] the “concentration in the CSF” value [1] was “No compound was detectable”, the concentration at 0 h ([2]; 0.5 mg/kg/day, FTY720 0.5 mg/kg/d p.o., Terminal (last day)) was 18 ± 2 nM and the concentration at 4 h ([2]; 0.5 mg/kg/day, FTY720 0.5 mg/kg/d p.o., Terminal (last day), 4 hr post-dose) was 24 ± 3 nM. The concentration at 8 h ([2]; 0.5 mg/kg/day, FTY720 0.5 mg/kg/d p.o., Terminal (last day), 8 hr post-dose) was 63 ± 37 nM, the concentration at 24 h ([2]; 0.5 mg/kg/day, FTY720 0.5 mg/kg/d p.o., Terminal (last day), 24 hr post-dose) was 40 ± 27 nM and the concentration at 4 h ([2]; 0.5 mg/kg/day, FTY720 0.5 mg/kg/d p.o., Day 1, 4 hr post-dose) was 9 ± 1 nM. It also gave a concentration at 8 h ([2]; 0.5 mg/kg/day, FTY720 0.5 mg/kg/d p.o., Day 1, 8 hr post-dose) of 13 ± 2 nM, a concentration at 24 h ([2]; 0.5 mg/kg/day, FTY720 0.5 mg/kg/d p.o., Day 1, 24 hr post-dose) of 8 ± 1 nM and a concentration at 0 h ([2]; 1.5 mg/kg/day, FTY720 1.5 mg/kg/d p.o., Terminal (last day)) of 58 ± 7 nM. For the same molecule, the concentration at 4 h ([2]; 1.5 mg/kg/day, FTY720 1.5 mg/kg/d p.o., Terminal (last day), 4 hr post-dose) was 60 ± 6 nM, the concentration at 8 h ([2]; 1.5 mg/kg/day, FTY720 1.5 mg/kg/d p.o., Terminal (last day), 8 hr post-dose) was 81 ± 4 nM and the concentration at 24 h ([2]; 1.5 mg/kg/day, FTY720 1.5 mg/kg/d p.o., Terminal (last day), 24 hr post-dose) was 44 ± 5 nM. For the same molecule, the concentration at 4 h ([2]; 1.5 mg/kg/day, FTY720 1.5 mg/kg/d p.o., Day 1, 4 hr post-dose) was 45 ± 4 nM, the concentration at 8 h ([2]; 1.5 mg/kg/day, FTY720 1.5 mg/kg/d p.o., Day 1, 8 hr post-dose) was 53 ± 9 nM and the concentration at 24 h ([2]; 1.5 mg/kg/day, FTY720 1.5 mg/kg/d p.o., Day 1, 24 hr post-dose) was 34 ± 4 nM. The concentration at 0 h ([2]; 5 mg/kg/day, FTY720 5.0 mg/kg/d p.o., Terminal (last day)) was 207 ± 27 nM, the concentration at 4 h ([2]; 5 mg/kg/day, FTY720 5.0 mg/kg/d p.o., Terminal (last day), 4 hr post-dose) was 229 ± 21 nM and the concentration at 8 h ([2]; 5 mg/kg/day, FTY720 5.0 mg/kg/d p.o., Terminal (last day), 8 hr post-dose) was 176 ± 37 nM. It also gave a concentration at 24 h ([2]; 5 mg/kg/day, FTY720 5.0 mg/kg/d p.o., Terminal (last day), 24 hr post-dose) of 134 ± 21 nM, a concentration at 4 h ([2]; 5 mg/kg/day, FTY720 5.0 mg/kg/d p.o., Day 1, 4 hr post-dose) of 98 ± 14 nM and a concentration at 8 h ([2]; 5 mg/kg/day, FTY720 5.0 mg/kg/d p.o., Day 1, 8 hr post-dose) of 102 ± 4 nM. For the same molecule, the concentration at 24 h ([2]; 5 mg/kg/day, FTY720 5.0 mg/kg/d p.o., Day 1, 24 hr post-dose) was 17 ± 40 nM, the “Plasma concentration at Tmax” value ([2]; FTY720 0.5 mg/kg/d p.o.) was 13 ± 2 nM and the “Terminal plasma concentration at Tmax” value ([2]; FTY720 0.5 mg/kg/d p.o.) was 63 ± 37 nM. For the same molecule, the “Plasma concentration at Tmax” value ([2]; FTY720 1.5 mg/kg/d p.o.) was 53 ± 9 nM, the “Terminal plasma concentration at Tmax” value ([2]; FTY720 1.5 mg/kg/d p.o.) was 81 ± 4 nM and the “Plasma concentration at Tmax” value ([2]; FTY720 5.0 mg/kg/d p.o.) was 120 ± 17 nM. For the same molecule, the “Terminal plasma concentration at Tmax” value ([2]; FTY720 5.0 mg/kg/d p.o.) was 229 ± 21 nM, the concentration at 20 min ([3]; end of 0.1 mg/kg/20 min infusion) was 54 ± 9 nM and the concentration at 40 min ([3]; end of 0.3 mg/kg/20 min infusion) was 198 ± 13 nM. It also gave a concentration at 60 min ([3]; end of 1.0 mg/kg/20 min infusion) of 375 ± 46 nM and a concentration at 120 min ([3]; end of 60-min post-treatment period) of 121 ± 5 nM.
